Experimental data published in patent US20220313656A1, “NEW CLASS OF ANTIBIOTICS HAVING LOW MIC-VALUES TOWARDS DIFFERENT STRAINS OF BACTERIA” (priority 2019, published 2022).
Like-named read-outs stand apart in the source and are kept apart here.

How the values were obtained:
[1] = system: Staphylococcus aureus MRSA 43484; assay: Murine superficial MRSA skin infection model, topical treatment; type: in vivo; conditions: 2%, topical twice daily for 3 days, day 4, Balb/C mice
Protocol: This experiment is conducted to assess the effect of topical treatment of the compounds against MRSA. Compound S43 was evaluated for efficacy against Staphylococcus aureus MRSA 43484 in an murine skin infection model.
Treatment was performed twice daily for 3 days and sampling of skin biopsies was performed the day after last treatment. Treatment with Fucidic acid was included as a positive control and treatment with vehicle was included as a negative control.
48 Balb/C female mice—18-22 g—Taconic, Denmark, Staphylococcus aureus MRSA43484, Test compound A at 1 and 2% formulations, Test compound B at 2% formulation, Fucidin, 0.9% saline (sterile, SSI), 0.9% saline/Triton-x (sterile, SSI), Sterile water (SSI), 5% Horse Blood Agar plates (SSI), MRSA Brilliance agar plates, Nurofen® Junior (20 mg/ml, Novartis), Zoletil mix/Torbugesic (SSI/QC-BIO), Dermal curette—Miltex 335710.
Approximately 1 hour before inoculation, mice were treated orally with 45 μl nurofen (20 mg ibuprofen/ml corresponding to approximately […]) as pain relief. The mice were anaesthetized with 0.15 ml s.c. of Zoletil mix. The fur was removed from a 2×3-cm area on the back of each mouse by use of an electric shaver. Next, a razor was used to remove all the hair and hereafter the outer most layer of the skin was scraped off with a dermal curette to obtain a 1 cm^2 superficial skin lesion. 10 μl inoculum containing approximately 10^7 CFU was spread on the lesion. After the applied inoculum had dried, the mouse was placed in the cage and kept in a warming cabinet until fully awake.
Topical treatment of was initiated the day after inoculation, Day 1. Mice were treated twice daily (9 a.m and 3 p.m.) for three days. A volume of 50 μl was spread on the inoculated skin area.
Colony counts in the skin lesions were determined on day 1 (start of treatment) and day 4 (the day after completed treatment). The mice were sacrificed day 1 and 4 according to Table 1. The affected skin area was removed by a pair of scissors and tweezers, and collected in a tube for Dispomixer with 1 ml saline. The skin sample was homogenized in a Dispomixer. Each sample was serial diluted in saline/Triton-x and 20-μl spots were applied on MRSA Brillince agar plates. All agar plates were incubated 20-48 hrs at 35° C.

[2] = system: Streptococcus equi; assay: MIC, serial dilution method (CLSI); type: cell-based
Protocol: (§1) These inoculums were each in diluted 1:100 in Müller Hinton (MH) broth (Sigma, Copenhagen, Denmark). From the diluted inoculums 100 μl was transferred to each well in a 96-well plate and mixed with the compound to be MIC determined. The plate was incubated for 24 hours at 37° C. (without shaking). The MIC value was determined as the lowest concentration in which no bacterial growth could be visually detected. All MIC determinations were done in duplicates. […] Since all derivatives are new, no control strains (with reference MIC values) were available.

[3] = system: Listeria monocytogenes; assay: MIC, serial dilution method (CLSI); type: cell-based
Protocol: as §1

[4] = system: Bacillus cereus; assay: MIC, serial dilution method (CLSI); type: cell-based
Protocol: as §1

[5] = system: Salmonella enteritidis; assay: MIC, serial dilution method (CLSI); type: cell-based
Protocol: as §1

[6] = system: E. coli APEC O2; assay: MIC, serial dilution method (CLSI); type: cell-based, Escherichia coli
Protocol: as §1

[7] = system: Cutibacterium acnes; assay: MIC and MBC determination; type: cell-based; conditions: Multiresistant clinical isolate
Protocol: (§2) MBC-value defines the antibiotic activities by the lowest concentration of the compound needed to kill at least 99.9% of the bacteria, also known as minimum bactericidal concentration (MBC) value.
(§3) The MIC for each compound for each bacteria strain was determined by the serial dilution method following the CLSI guidelines (CLSI Clinical and Laboratory Standards Institute: Performance Standards for Antimicrobial Susceptibility Testing: […] M100-S25. Wayne, Pa., USA; 2015.) All compounds were diluted in autoclaved H2O and stored at 4° C. […] Bacterial inoculums were prepared by inoculating 9 ml of H2O with bacterial colonies from agar plate (Oxoid, Roskilde Denmark) supplemented with bovine blood to a final yield a final density of 10^8 colony forming unit (CFU)/mL using a Sensititre™ Nephelometer (Thermo Scientific, Roskilde, Denmark). These inoculums were each in diluted 1:100 in Müller Hinton (MH) broth (Sigma, Copenhagen, Denmark). From the diluted inoculums 100 μl was transferred to each well in a 96-well plate and mixed with the compound to be MIC determined. The plate was incubated for 24 hours at 37° C. (without shaking). The MIC value was determined as the lowest concentration in which no bacterial growth could be visually detected. All MIC determinations were done in duplicates. […] Since all derivatives are new, no control strains (with reference MIC values) were available.

[8] = system: Staphylococcus epidermidis; assay: MIC and MBC determination; type: cell-based; conditions: Multiresistant clinical isolate
Protocol: as §2, §3

[9] = system: E. faecium; assay: MIC, serial dilution method (CLSI); type: cell-based, Enterococcus faecium
Protocol: as §1

[10] = system: S. aureus CC398; assay: MIC, serial dilution method (CLSI); type: cell-based, Staphylococcus aureus
Protocol: as §1

[11] = system: S. aureus USA300; assay: MIC, serial dilution method (CLSI); type: cell-based, Staphylococcus aureus
Protocol: as §1

[12] = system: Staphylococus pseudintermedius; assay: MIC, serial dilution method (CLSI); type: cell-based, Staphylococcus pseudintermedius
Protocol: as §1

[13] = system: E. faecalis; assay: MIC, serial dilution method (CLSI); type: cell-based, Enterococcus faecalis
Protocol: as §1

[14] = Salmonella enterica, ENTERITIDIS, 24 h, read-out: MIC
[15] = Escherichia coli, APECO2, 24 h, read-out: MIC
[16] = Enterococcus faecium, 24 h, read-out: MIC
[17] = Staphylococcus aureus, MRSA, 24 h, read-out: MIC
[18] = Staphylococcus aureus, USA300, 24 h, read-out: MIC
[19] = Staphylococcus pseudintermedius, 24 h, read-out: MIC
[20] = Enterococcus faecalis, 24 h, read-out: MIC
[21] = MH broth, 24 hours at 37° C., set to 256 if growth at […]
[22] = Salmonella enteritidis, MH broth, 24 hours at 37° C., set to 256 if growth at […]
[23] = E. coli APEC O2, MH broth, 24 hours at 37° C., set to 256 if growth at […]
[24] = E. faecium, MH broth, 24 hours at 37° C., set to 256 if growth at […]
[25] = S. aureus CC398 (MRSA strain), MH broth, 24 hours at 37° C., set to 256 if growth at […]
[26] = S. aureus USA300, MH broth, 24 hours at 37° C., set to 256 if growth at […]
[27] = Staphylococus pseudintermedius, MH broth, 24 hours at 37° C., set to 256 if growth at […]
[28] = E. faecalis, MH broth, 24 hours at 37° C., set to 256 if growth at […]

SMILES | MIC ([2]; 24 h, read-out: MIC) | MIC ([3]; 24 h, read-out: MIC) | MIC ([4]; 24 h, read-out: MIC) | MIC [5, 14] | MIC [6, 15] | MIC [9, 16] | MIC [10, 17] | MIC [11, 18] | MIC [12, 19] | MIC [13, 20] | MIC [2, 21] | MIC [3, 21] | MIC [4, 21] | MIC [5, 22] | MIC [6, 23] | MIC [9, 24] | MIC [10, 25] | MIC [11, 26] | MIC [12, 27] | MIC [13, 28] | also measured
CC(=O)O[C@H]1C[C@@]2(C)[C@@H](C[C@@H](O)[C@H]3[C@@]4(C)CC[C@@H](O)[C@@H](C)[C@@H]4CC[C@@]32C)/C1=C(\CCC=C(C)C)C(=O)O [fucidic acid, reference compound] |  |  |  |  |  |  |  |  |  |  |  |  |  |  |  |  |  |  |  |  | reduction of the CFU levels compared to the vehicle control [1]: 1.5 logo
CCCCCCCCCCCC[N+](C)(C)C(C)CN1c2ccccc2Sc2ccccc21.[Br-] (centres unmarked) [Compound S18, N-(1-(10H-phenothiazin-10-yl)propan-2-yl)-N,N-dimethyldodecan-1-aminium bromide] | 1 µg/mL | 0.25 µg/mL | 0.25 µg/mL | 64 µg/mL | 64 µg/mL | 0.25 µg/mL | 0.25 µg/mL | 0.5 µg/mL | 0.25 µg/mL | 0.5 µg/mL |  |  |  |  |  |  |  |  |  |  | MBC [7]: 0.5 µg/mL; MIC [7]: 0.5 µg/mL; MBC [8]: 0.25 µg/mL; MIC [8]: 0.25 µg/mL
CCCCC[N+](C)(C)CC/C=C1/c2ccccc2Sc2ccc(Cl)cc21.[Br-] [Compound S38, (Z)—N-(3-(2-chloro-9H-thioxanthen-9-ylidene)propyl)-N,N-dimethylpentan-1-aminium bromide] | 2 µg/mL | 8 µg/mL | 8 µg/mL | 64 µg/mL | 64 µg/mL | 16 µg/mL | 4 µg/mL | 4 µg/mL | 2 µg/mL | 16 µg/mL |  |  |  |  |  |  |  |  |  |  | 
CC(C)CC[N+](C)(C)CCCN1c2ccccc2Sc2ccc(Cl)cc21.[Br-] [Compound S5, N-(3-(2-chloro-10H-phenothiazin-10-yl)propyl)-N,N,3-trimethylbutan-1-aminium bromide] | 8 µg/mL | 32 µg/mL | 64 µg/mL | 128 µg/mL | 128 µg/mL | 32 µg/mL | 16 µg/mL | 16 µg/mL | 8 µg/mL | 32 µg/mL |  |  |  |  |  |  |  |  |  |  | 
C=CC[N+](C)(C)CCCN1c2ccccc2Sc2ccc(Cl)cc21.[Br-] [Compound S40, N-(3-(2-chloro-10H-phenothiazin-10-yl)propyl)-N,N-dimethylprop-2-en-1-aminium bromide] | 8 µg/mL | 32 µg/mL | 64 µg/mL | 128 µg/mL | 256 µg/mL | 64 µg/mL | 16 µg/mL | 16 µg/mL | 8 µg/mL | 64 µg/mL |  |  |  |  |  |  |  |  |  |  | 
C=CC[N+](C)(C)CCC=C1c2ccccc2Sc2ccc(Cl)cc21 [Chlorprothixene 2-Propene-1-yl] |  |  |  |  |  |  |  |  |  |  | 8 µg/mL | 32 µg/mL | 32 µg/mL | 128 µg/mL | 128 µg/mL | 64 µg/mL | 16 µg/mL | 16 µg/mL | 8 µg/mL | 128 µg/mL | 
CCOC(=O)CC[N+]1(C)CCCCC1CCN1c2ccccc2Sc2ccc(SC)cc21 (centres unmarked) [Thioridazine 3-Ethoxy-3-oxo-1-propyl] |  |  |  |  |  |  |  |  |  |  | 8 µg/mL | 4 µg/mL | 4 µg/mL | 128 µg/mL | 256 µg/mL | 32 µg/mL | 32 µg/mL | 32 µg/mL | 16 µg/mL | 32 µg/mL | 
C[N+](C)(CCC=C1c2ccccc2Sc2ccc(Cl)cc21)Cc1ccccc1 [Chlorprothixene Benzyl] |  |  |  |  |  |  |  |  |  |  | 2 µg/mL | 32 µg/mL | 16 µg/mL | 64 µg/mL | 64 µg/mL | 16 µg/mL | 2 µg/mL | 4 µg/mL | 2 µg/mL | 16 µg/mL | 
C=CC[N+]1(C)CCCCC1CCN1c2ccccc2Sc2ccc(SC)cc21.[Br-] (centres unmarked) [Compound S42, 1-allyl-1-methyl-2-(2-(2-(methylthio)-10H-phenothiazin-10-yl)ethyl)piperidin-1-ium bromide] | 4 µg/mL | 32 µg/mL | 64 µg/mL | 128 µg/mL | 256 µg/mL | 16 µg/mL | 4 µg/mL | 4 µg/mL | 4 µg/mL | 16 µg/mL |  |  |  |  |  |  |  |  |  |  | 
COC(=O)CCCCC[N+](C)(C)CCC=C1c2ccccc2Sc2ccc(Cl)cc21 [Chlorprothixene 6-Methoxy-6-oxo-1-hexyl] |  |  |  |  |  |  |  |  |  |  | 8 µg/mL | 8 µg/mL | 8 µg/mL | 128 µg/mL | 128 µg/mL | 64 µg/mL | 8 µg/mL | 8 µg/mL | 8 µg/mL | 128 µg/mL | 
